Reference: paper PMC9516332 (Frontiers in Oncology, 2022)
Like-named read-outs stand apart in the source and are kept apart here.

Experiments:
Test in all cases: Kinase panel profiling at 1 µmol/L (MSA or IMAP), percentage inhibition
Format in all cases: biochemical
[1] = molecular target: T1, panel of 255 wild-type kinases (Homo sapiens, UniProt O15530); settings: read-out: %-inhibition at 1 µmol/L, PDK1
T1 sequence (O15530 1-556): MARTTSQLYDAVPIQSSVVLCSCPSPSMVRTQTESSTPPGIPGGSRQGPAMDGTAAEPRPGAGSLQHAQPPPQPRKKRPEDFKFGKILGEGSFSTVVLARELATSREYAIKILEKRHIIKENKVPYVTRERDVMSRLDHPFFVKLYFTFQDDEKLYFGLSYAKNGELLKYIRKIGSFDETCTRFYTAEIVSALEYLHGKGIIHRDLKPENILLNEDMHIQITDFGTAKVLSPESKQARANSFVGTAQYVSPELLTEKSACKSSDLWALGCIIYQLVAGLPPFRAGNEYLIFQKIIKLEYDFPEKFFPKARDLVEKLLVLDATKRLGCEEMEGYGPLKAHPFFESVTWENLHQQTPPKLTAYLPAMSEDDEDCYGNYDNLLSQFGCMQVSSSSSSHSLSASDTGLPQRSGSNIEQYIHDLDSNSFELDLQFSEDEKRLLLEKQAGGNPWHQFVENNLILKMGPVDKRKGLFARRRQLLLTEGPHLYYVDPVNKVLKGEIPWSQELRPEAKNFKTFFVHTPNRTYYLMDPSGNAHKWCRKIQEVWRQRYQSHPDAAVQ

[2] = molecular target: panel of 255 wild-type kinases (Homo sapiens, UniProt P06493); settings: read-out: %-inhibition CDC2/CycB1
[3] = molecular target: panel of 255 wild-type kinases (Homo sapiens, UniProt P07947); settings: read-out: %-inhibition at 1 µmol/L, YES
[4] = molecular target: panel of 255 wild-type kinases (Homo sapiens, UniProt P10721); settings: read-out: %-inhibition at 1 µmol/L, KIT
[5] = molecular target: panel of 255 wild-type kinases (Homo sapiens, UniProt Q04759); settings: read-out: %-inhibition at 1 µmol/L, PKCθ
[6] = molecular target: panel of 255 wild-type kinases (Homo sapiens, UniProt Q04912); settings: read-out: %-inhibition at 1 µmol/L, RON
[7] = molecular target: panel of 255 wild-type kinases (Homo sapiens, UniProt Q86V86); settings: read-out: %-inhibition at 1 µmol/L, PIM3
[8] = molecular target: panel of 255 wild-type kinases (Homo sapiens, UniProt Q9H2G2); settings: read-out: %-inhibition at 1 µmol/L, SLK
[9] = molecular target: T2, panel of 255 wild-type kinases (Homo sapiens, UniProt Q9NWZ3); settings: read-out: %-inhibition at 1 µmol/L, IRAK4
T2 sequence (Q9NWZ3 1-460): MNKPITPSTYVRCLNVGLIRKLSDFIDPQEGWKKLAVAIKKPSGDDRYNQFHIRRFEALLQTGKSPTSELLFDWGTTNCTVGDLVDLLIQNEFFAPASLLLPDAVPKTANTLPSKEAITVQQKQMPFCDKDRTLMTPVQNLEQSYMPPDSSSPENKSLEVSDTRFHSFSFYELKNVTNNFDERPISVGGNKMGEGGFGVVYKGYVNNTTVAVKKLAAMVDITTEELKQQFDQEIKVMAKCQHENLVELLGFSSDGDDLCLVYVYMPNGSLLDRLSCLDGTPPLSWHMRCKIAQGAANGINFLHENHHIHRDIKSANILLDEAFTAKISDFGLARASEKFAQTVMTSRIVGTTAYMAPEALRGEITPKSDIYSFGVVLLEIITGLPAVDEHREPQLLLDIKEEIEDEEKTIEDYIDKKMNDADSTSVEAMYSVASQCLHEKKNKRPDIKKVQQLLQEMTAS

[10] = molecular target: panel of 255 wild-type kinases (Homo sapiens, UniProt Q9UM73); settings: read-out: %-inhibition ALK
[11] = molecular target: panel of 255 wild-type kinases (Homo sapiens, UniProt Q9Y3S1); settings: read-out: %-inhibition at 1 µmol/L, WNK2
[12] = molecular target: panel of 255 wild-type kinases (Homo sapiens, UniProt Q9Y463); settings: read-out: %-inhibition at 1 µmol/L, DYRK1B
[13] = molecular target: panel of 255 wild-type kinases (Homo sapiens, UniProt Q9Y5S2); settings: read-out: %-inhibition, MRCKβ
[14] = kinase PDK1, 1 µmol/L single concentration
[15] = CDC2/CycB1 kinase assay, 1 µmol/L single concentration
[16] = kinase YES, 1 µmol/L single concentration
[17] = kinase KIT, 1 µmol/L single concentration
[18] = kinase PKCθ, 1 µmol/L single concentration
[19] = kinase RON, 1 µmol/L single concentration
[20] = kinase PIM3, 1 µmol/L single concentration
[21] = kinase SLK, 1 µmol/L single concentration
[22] = kinase IRAK4, 1 µmol/L single concentration
[23] = ALK kinase assay, 1 µmol/L single concentration
[24] = kinase WNK2, 1 µmol/L single concentration
[25] = kinase DYRK1B, 1 µmol/L single concentration
[26] = MRCKβ, 1 µmol/L single concentration

In the case of `COC(=O)N[C@@H](C)CNc1nccc(-c2cn(C(C)C)nc2-c2cc(Cl)cc(NS(C)(=O)=O)c2F)n1` [encorafenib], the inhibition at 1 µM [1, 14] is reported as -2.17%, the inhibition at 1 µM [2, 15] is reported as 8% and the inhibition at 1 µM [3, 16] is reported as 3.55%. For the same compound, the inhibition at 1 µM [4, 17] was -1.43%, the inhibition at 1 µM [5, 18] was 2% and the inhibition at 1 µM [6, 19] was -1.42%. It also gave an inhibition at 1 µM [7, 20] of 10%, an inhibition at 1 µM [8, 21] of 6% and an inhibition at 1 µM [9, 22] of -1.14%. It also gave an inhibition at 1 µM [10, 23] of 8%, an inhibition at 1 µM [11, 24] of -0.751% and an inhibition at 1 µM [12, 25] of -3.42%. The inhibition at 1 µM [13, 26] was 1.73%.
Compound `COc1ccc(CN2C3CC2CN(c2ccc(-c4cc(OCC(C)(C)O)cn5ncc(C#N)c45)cn2)C3)cn1` [selpercatinib] has an inhibition at 1 µM [1, 14] of 7%, an inhibition at 1 µM [2, 15] of -4% and an inhibition at 1 µM [3, 16] of 84%. It also gave an inhibition at 1 µM [4, 17] of 54%, an inhibition at 1 µM [5, 18] of -2.29% and an inhibition at 1 µM [6, 19] of 49%. For the same compound, the inhibition at 1 µM [7, 20] was -2.65%, the inhibition at 1 µM [8, 21] was 14% and the inhibition at 1 µM [9, 22] was 1.9%. It also gave an inhibition at 1 µM [10, 23] of 4%, an inhibition at 1 µM [11, 24] of -2.37% and an inhibition at 1 µM [12, 25] of 1.42%. The inhibition at 1 µM [13, 26] was -3.65%.
Work on `CCc1nc(C(N)=O)c(Nc2ccc(N3CCC(N4CCN(C)CC4)CC3)c(OC)c2)nc1NC1CCOCC1` [gilteritinib] yielded an inhibition at 1 µM [1, 14] of -1.87%, an inhibition at 1 µM [2, 15] of 26% and an inhibition at 1 µM [3, 16] of 98%. It also gave an inhibition at 1 µM [4, 17] of 71%, an inhibition at 1 µM [5, 18] of 12% and an inhibition at 1 µM [6, 19] of 98%. It also gave an inhibition at 1 µM [7, 20] of 23%, an inhibition at 1 µM [8, 21] of 99% and an inhibition at 1 µM [9, 22] of 79%. It also gave an inhibition at 1 µM [10, 23] of 101%, an inhibition at 1 µM [11, 24] of -1% and an inhibition at 1 µM [12, 25] of 34%. It also gave an inhibition at 1 µM [13, 26] of 47%.
For `CCN1C(=O)N(c2c(F)c(OC)cc(OC)c2F)Cc2cnc3[nH]c(CN4CCOCC4)cc3c21` [pemigatinib], the inhibition at 1 µM [1, 14] was 0.293%, the inhibition at 1 µM [2, 15] was 10% and the inhibition at 1 µM [3, 16] was 24%. For the same compound, the inhibition at 1 µM [4] was 23%, the inhibition at 1 µM [5, 18] was -2.16% and the inhibition at 1 µM [6, 19] was 4.48%. The inhibition at 1 µM [7, 20] was -8%, the inhibition at 1 µM [8, 21] was 0.681% and the inhibition at 1 µM [9, 22] was 0.22%. The inhibition at 1 µM [10, 23] was -1.12%, the inhibition at 1 µM [11, 24] was -1.88% and the inhibition at 1 µM [12, 25] was 6%. It also gave an inhibition at 1 µM [13, 26] of -4.4%.
With `Cn1cc(-c2cc3c(N4CCN(c5ncc([C@@](C)(N)c6ccc(F)cc6)cn5)CC4)ncnn3c2)cn1` [avapritinib] the inhibition at 1 µM [1, 14] was 6.57%, the inhibition at 1 µM [2, 15] was 3% and the inhibition at 1 µM [3, 16] was 83%. It also gave an inhibition at 1 µM [4, 17] of 100%, an inhibition at 1 µM [5, 18] of 2.6% and an inhibition at 1 µM [6, 19] of 48%. For the same compound, the inhibition at 1 µM [7, 20] was 9%, the inhibition at 1 µM [8, 21] was 36% and the inhibition at 1 µM [9, 22] was 12%. It also gave an inhibition at 1 µM [10, 23] of 35%, an inhibition at 1 µM [11, 24] of 0.928% and an inhibition at 1 µM [12, 25] of 47%. For the same compound, the inhibition at 1 µM [13, 26] was 12%.
`CNC(=O)c1ccc(-c2cnc3ncc(Cc4ccc5ncccc5c4)n3n2)cc1F` [capmatinib] was tested, and the inhibition at 1 µM [1] was 4%, the inhibition at 1 µM [2] was 2% and the inhibition at 1 µM [3] was 1.32%. For the same compound, the inhibition at 1 µM [4] was 4%, the inhibition at 1 µM [5] was -5.31% and the inhibition at 1 µM [6] was 13%. It also gave an inhibition at 1 µM [7] of 1.78%, an inhibition at 1 µM [8] of 7.55% and an inhibition at 1 µM [9] of -0.569%. The inhibition at 1 µM [10] was 28%, the inhibition at 1 µM [11] was -2.3% and the inhibition at 1 µM [12] was 1.71%. The inhibition at 1 µM [13] was -1.73%.
`C[C@H](Nc1ncnc2nc[nH]c12)c1cc2cccc(Cl)c2c(=O)n1-c1ccccc1` [duvelisib] gave an inhibition at 1 µM [1, 14] of 2.42%, an inhibition at 1 µM [2, 15] of -0.937% and an inhibition at 1 µM [3, 16] of -2.44%. The inhibition at 1 µM [4, 17] was -2.43%, the inhibition at 1 µM [5, 18] was 1.09% and the inhibition at 1 µM [6, 19] was 8%. For the same compound, the inhibition at 1 µM [7, 20] was -7%, the inhibition at 1 µM [8, 21] was 7.44% and the inhibition at 1 µM [9, 22] was 1.13%. It also gave an inhibition at 1 µM [10, 23] of 3.74%, an inhibition at 1 µM [11, 24] of -1.82% and an inhibition at 1 µM [12, 25] of -0.692%. The inhibition at 1 µM [13, 26] was -7%.
